We go through 13 compounds from patent US20240398805A1, “QUINAZOLINE DERIVED COMPOUNDS AS EGFR INHIBITORS AND THEIR USES THEREOF” (ACCUTAR BIOTECHNOLOGY INC., priority 2021, published 2024).

Some results are limits rather than exact numbers.

What all share (type): cell-based
In one experiment the test system is A431 cells. Nature of the experiment: Cell growth inhibition (CellTiter-Glo, 3 days) in A431. Particulars: Homo sapiens, A-431, 72 h, 3 days after administration. The essentials:
(§1)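 HCC827 cells in RPMI/10% FBS and A431 cells in DMEM/10% FBS were seeded at 5000 cells/well and left overnight. Compound was then added over a concentration range for 3 days of incubation, and viability was read by CellTiter-Glo luminescence.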

A further experiment relates to HCC827 cells. Nature of the experiment: Cell growth inhibition (CellTiter-Glo, 3 days) in HCC827. Particulars: Homo sapiens, 72 h, 3 days after administration. Summed up:
as §1

Experiment [1] has as its system HCC827-SVD cells (human EGFR exon 20 insertion mutant D770_N771 insSVD). The experiment is described as follows: Cell growth inhibition (CellTiter-Glo, 3 days) in HCC827-SVD. The settings on record: 72 h, 3 days after administration. The essentials:
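HCC827 cells carrying lentiviral codon-optimized EGFR D770_N771 insSVD, with endogenous EGFR knocked out by CRISPR (single clone), seeded at 5000 cells/well in RPMI with 10% FBS. Viability read by CellTiter-Glo luminescence.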

Experiment [2] concerns HCC827-YVMA cells (human ERBB2 exon20 insertion mutant A775_G776ins YVMA). Nature of the experiment: Cell growth inhibition (CellTiter-Glo, 3 days) in HCC827-YVMA. The settings on record: 72 h, 3 days after administration. The essentials: (§2)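 HCC827 cells lentivirally transduced with codon-optimized ASV or YVMA insertion mutants were seeded at 5000 cells/well in RPMI with 10% FBS and incubated overnight. Compound was added at various concentrations from a 10× stock in medium, with 3 days' incubation. Viability read by CellTiter-Glo luminescence.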

Experiment [3] deals with HCC827-ASV cells (human EGFR exon 20 insertion mutant A769_D770insASV). The experiment is described as follows: Cell growth inhibition (CellTiter-Glo, 3 days) in HCC827-ASV. Particulars: 72 h, 3 days after administration. The essentials: as §2

With `C=CC(=O)N1CCC(Nc2cc3c(Nc4ccc(Oc5ccnc(N6CC(CO)C6)c5)cc4F)ncnc3cc2OC)CC1` [Example 140, 1-(4-((4-((2-fluoro-4-((2-(3-(hydroxymethyl)azetidin-1-yl)pyridin-4-yl)oxy)phenyl)amino)-7-methoxyquinazolin-6-yl)amino)piperidin-1-yl)prop-2-en-1-one], the GI50 in the experiment on A431 cells was 600 to 1000 nM; in the experiment with HCC827 cells, 600 to 1000 nM; in experiment [1], 100 to 300 nM; in experiment [2], 300 to 600 nM; in experiment [3], 100 to 300 nM.
As to `C=CC(=O)N1CCC(Nc2cc3c(Nc4ccc(Oc5ccnc(N6CC(C#N)C6)c5)cc4F)ncnc3cc2OC)CC1` [Example 141, 1-(4-(4-((6-((1-acryloylpiperidin-4-yl)amino)-7-methoxyquinazolin-4-yl)amino)-3-fluorophenoxy)pyridin-2-yl)azetidine-3-carbonitrile], the GI50 in the experiment with A431 cells was ≥ 1000 nM; in the experiment on HCC827 cells, 100 to 300 nM; in experiment [1], 30 to 60 nM; in experiment [2] it was 30 to 60 nM; in experiment [3], < 30 nM.
Regarding `C=CC(=O)N1CCC(Nc2cc3c(Nc4ccc(Oc5ccnc(N6CC(COC)C6)c5)cc4F)ncnc3cc2OC)CC1` [Example 142, 1-(4-((4-((2-fluoro-4-((2-(3-(methoxymethyl)azetidin-1-yl)pyridin-4-yl)oxy)phenyl)amino)-7-methoxyquinazolin-6-yl)amino)piperidin-1-yl)prop-2-en-1-one], the GI50 with A431 cells was ≥ 1000 nM; with HCC827 cells it was 100 to 300 nM; in experiment [1] it was < 30 nM; in experiment [2], < 30 nM; in experiment [3] it was < 30 nM.
Take `C=CC(=O)N1CCC(Nc2cc3c(Nc4ccc(Oc5ccnc(N6CC(S(C)(=O)=O)C6)c5)cc4F)ncnc3cc2OC)CC1` [Example 143, 1-(4-((4-((2-fluoro-4-((2-(3-(methylsulfonyl)azetidin-1-yl)pyridin-4-yl)oxy)phenyl)amino)-7-methoxyquinazolin-6-yl)amino)piperidin-1-yl)prop-2-en-1-one]: the GI50 with A431 cells is ≥ 1000 nM; in the experiment with HCC827 cells, ≥ 1000 nM; in experiment [1] it was 300 to 600 nM; in experiment [2], 300 to 600 nM; in experiment [3] it was 300 to 600 nM.
Turning to `C=CC(=O)N1CCC(Nc2cc3c(Nc4ccc(Oc5ccnc(N6CC(C(N)=O)C6)c5)cc4F)ncnc3cc2OC)CC1` [Example 144, 1-(4-(4-((6-((1-acryloylpiperidin-4-yl)amino)-7-methoxyquinazolin-4-yl)amino)-3-fluorophenoxy)pyridin-2-yl)azetidine-3-carboxamide], the GI50 with A431 cells was ≥ 1000 nM; in the experiment with HCC827 cells it was ≥ 1000 nM; in experiment [1], 600 to 1000 nM; in experiment [2], ≥ 1000 nM; in experiment [3], 600 to 1000 nM.
Turning to `C=CC(=O)N1CCC(Nc2cc3c(Nc4ccc(Oc5ccnc(N6CC(NC(C)=O)C6)c5)cc4F)ncnc3cc2OC)CC1` [Example 145, N-(1-(4-(4-((6-((1-acryloylpiperidin-4-yl)amino)-7-methoxyquinazolin-4-yl)amino)-3-fluorophenoxy)pyridin-2-yl)azetidin-3-yl)acetamide], the GI50 (in the experiment on A431 cells; in the experiment on HCC827 cells; in experiment [1]; in experiment [2]; in experiment [3]) was ≥ 1000 nM throughout.
In the case of `C=CC(=O)N1CCC(Nc2cc3c(Nc4ccc(Oc5ccnc(N6CC(C(C)(C)O)C6)c5)cc4F)ncnc3cc2OC)CC1` [Example 146, 1-(4-((4-((2-fluoro-4-((2-(3-(2-hydroxypropan-2-yl)azetidin-1-yl)pyridin-4-yl)oxy)phenyl)amino)-7-methoxyquinazolin-6-yl)amino)piperidin-1-yl)prop-2-en-1-one], the GI50 in the experiment with A431 cells is ≥ 1000 nM; in the experiment on HCC827 cells it was 600 to 1000 nM; in experiment [1] it was 60 to 100 nM; in experiment [2] it was 100 to 300 nM; in experiment [3] it was 60 to 100 nM.
As for `C=CC(=O)N1CCC(Nc2cc3c(Nc4ccc(Oc5ccnc(N6CC(N(C)C)C6)c5)cc4F)ncnc3cc2OC)CC1` [Example 147, 1-(4-((4-((4-((2-(3-(dimethylamino)azetidin-1-yl)pyridin-4-yl)oxy)-2-fluorophenyl)amino)-7-methoxyquinazolin-6-yl)amino)piperidin-1-yl)prop-2-en-1-one], the GI50 is ≥ 1000 nM in the experiment with A431 cells; 100 to 300 nM in the experiment on HCC827 cells; 60 to 100 nM in experiment [1]; 60 to 100 nM in experiment [2]; 60 to 100 nM in experiment [3].
On to `C=CC(=O)N1CCC(Nc2cc3c(Nc4ccc(Oc5ccnc(N6CC(OC(C)C)C6)c5)cc4F)ncnc3cc2OC)CC1` [Example 148, 1-(4-((4-((2-fluoro-4-((2-(3-isopropoxyazetidin-1-yl)pyridin-4-yl)oxy)phenyl)amino)-7-methoxyquinazolin-6-yl)amino)piperidin-1-yl)prop-2-en-1-one], for which the GI50 with A431 cells was 300 to 600 nM; in the experiment on HCC827 cells it was 100 to 300 nM; in experiment [1], 30 to 60 nM; in experiment [2] it was 30 to 60 nM; in experiment [3], 30 to 60 nM.
With `C=CC(=O)N1CCC(Nc2cc3c(Nc4ccc(Oc5ccnc(N6CCC(C)(O)C6)c5)cc4F)ncnc3cc2OC)CC1` (centres unmarked) [Example 149, 1-(4-((4-((2-fluoro-4-((2-(3-hydroxy-3-methylpyrrolidin-1-yl)pyridin-4-yl)oxy)phenyl)amino)-7-methoxyquinazolin-6-yl)amino)piperidin-1-yl)prop-2-en-1-one], the GI50 was in the range of 100 to 300 nM in the experiment with A431 cells; 100 to 300 nM in the experiment on HCC827 cells; 30 to 60 nM in experiment [1]; 60 to 100 nM in experiment [2]; 30 to 60 nM in experiment [3].
With `C=CC(=O)N1CCC(Oc2cc3c(Nc4ccc(Oc5ccnc(N6C[C@@H](C)O[C@@H](C)C6)c5)cc4F)ncnc3cc2OC)CC1` [Example 152, 1-(4-((4-((4-((2-((2R,6S)-2,6-dimethylmorpholino)pyridin-4-yl)oxy)-2-fluorophenyl)amino)-7-methoxyquinazolin-6-yl)oxy)piperidin-1-yl)prop-2-en-1-one], the GI50 in the experiment on A431 cells was ≥ 1000 nM; in the experiment with HCC827 cells it was 600 to 1000 nM; in experiment [1], 60 to 100 nM; in experiment [2], 60 to 100 nM; in experiment [3], < 30 nM.
As to `C=CC(=O)N1CCC(Nc2cc3c(Nc4ccc(Oc5ccnc(N6CCC(C)(C)C6)c5)cc4F)ncnc3cc2OC)CC1` [Example 153, 1-(4-((4-((4-((2-(3,3-dimethylpyrrolidin-1-yl)pyridin-4-yl)oxy)-2-fluorophenyl)amino)-7-methoxyquinazolin-6-yl)amino)piperidin-1-yl)prop-2-en-1-one], the GI50 with A431 cells was 300 to 600 nM; in the experiment on HCC827 cells it was < 30 nM; in experiment [1] it was < 30 nM; in experiment [2], 30 to 60 nM; in experiment [3], < 30 nM.
Consider `C=CC(=O)N1CCC(Nc2cc3c(Nc4ccc(Oc5ccnc(N6C[C@@H](C)N[C@@H](C)C6)c5)cc4F)ncnc3cc2OC)CC1` [Example 154, 1-(4-((4-((4-((2-((3R,5S)-3,5-dimethylpiperazin-1-yl)pyridin-4-yl)oxy)-2-fluorophenyl)amino)-7-methoxyquinazolin-6-yl)amino)piperidin-1-yl)prop-2-en-1-one], for which the GI50 in the experiment with A431 cells is ≥ 1000 nM; in the experiment on HCC827 cells it was ≥ 1000 nM; in experiment [1], 300 to 600 nM; in experiment [2], 300 to 600 nM; in experiment [3], 100 to 300 nM.
